Assay [1] concerns the target Homeodomain-interacting protein kinase 2 (Homo sapiens, UniProt Q9H2X6). Kind of assay: Selectivity interaction (Kinase panel (Z-LYTE Assay)) EUB0001632a HIPK2. Particulars: at 10 µM.
Assay [2] concerns the target RAC-alpha serine/threonine-protein kinase (Homo sapiens, UniProt P31749). The note with it: at 10 µM.
Assay [3] deals with Platelet-derived growth factor receptor alpha (Homo sapiens, UniProt P16234). The note with it: at 10 µM.
The target in assay [4] is 1-phosphatidylinositol 3-phosphate 5-kinase (Homo sapiens) (UniProt Q9Y2I7). Kind of assay: Selectivity interaction (KinomeScan (DiscoverX)) EUB0000695a PIKFYVE. The note with it: at 100 nM.
Assay [5] has as its target Protein-tyrosine kinase 2-beta (Homo sapiens) (UniProt Q14289). Kind of assay: Selectivity interaction (KinomeScan (DiscoverX)) EUB0000666a PTK2B. The note with it: at 10 µM.
For assay [6], the target named is Macrophage colony-stimulating factor 1 receptor (Homo sapiens) (UniProt P07333). The note with it: at 10 µM.
For assay [7], the target named is Mitogen-activated protein kinase kinase kinase kinase 5 (Homo sapiens) (UniProt Q9Y4K4). In words: Selectivity interaction (Kinase panel (Invitrogen)) EUB0000639a MAP4K5. The note with it: at 200 nM.
The target in assay [8] is Histone-lysine N-methyltransferase SUV39H2 (Homo sapiens) (UniProt Q9H5I1). The note with it: at 10 µM.
The target in assay [9] is Calcium/calmodulin-dependent protein kinase type II subunit beta (Homo sapiens) (UniProt Q13554). In words: Selectivity interaction (ProQinase) EUB0000171b CAMK2B.
Assay [10] has as its target Serine/threonine-protein kinase MRCK alpha (Homo sapiens) (UniProt Q5VT25). Kind of assay: Selectivity interaction (Ambit KINOMEscan and KiNATiv profiling in Jurkat cells) EUB0000090b CDC42BPA. Particulars: at 1 µM. In kind it is cell-based.
The target of assay [11] is T1, Ephrin type-B receptor 4 (Homo sapiens) (UniProt P54760).
T1 sequence (whole entry): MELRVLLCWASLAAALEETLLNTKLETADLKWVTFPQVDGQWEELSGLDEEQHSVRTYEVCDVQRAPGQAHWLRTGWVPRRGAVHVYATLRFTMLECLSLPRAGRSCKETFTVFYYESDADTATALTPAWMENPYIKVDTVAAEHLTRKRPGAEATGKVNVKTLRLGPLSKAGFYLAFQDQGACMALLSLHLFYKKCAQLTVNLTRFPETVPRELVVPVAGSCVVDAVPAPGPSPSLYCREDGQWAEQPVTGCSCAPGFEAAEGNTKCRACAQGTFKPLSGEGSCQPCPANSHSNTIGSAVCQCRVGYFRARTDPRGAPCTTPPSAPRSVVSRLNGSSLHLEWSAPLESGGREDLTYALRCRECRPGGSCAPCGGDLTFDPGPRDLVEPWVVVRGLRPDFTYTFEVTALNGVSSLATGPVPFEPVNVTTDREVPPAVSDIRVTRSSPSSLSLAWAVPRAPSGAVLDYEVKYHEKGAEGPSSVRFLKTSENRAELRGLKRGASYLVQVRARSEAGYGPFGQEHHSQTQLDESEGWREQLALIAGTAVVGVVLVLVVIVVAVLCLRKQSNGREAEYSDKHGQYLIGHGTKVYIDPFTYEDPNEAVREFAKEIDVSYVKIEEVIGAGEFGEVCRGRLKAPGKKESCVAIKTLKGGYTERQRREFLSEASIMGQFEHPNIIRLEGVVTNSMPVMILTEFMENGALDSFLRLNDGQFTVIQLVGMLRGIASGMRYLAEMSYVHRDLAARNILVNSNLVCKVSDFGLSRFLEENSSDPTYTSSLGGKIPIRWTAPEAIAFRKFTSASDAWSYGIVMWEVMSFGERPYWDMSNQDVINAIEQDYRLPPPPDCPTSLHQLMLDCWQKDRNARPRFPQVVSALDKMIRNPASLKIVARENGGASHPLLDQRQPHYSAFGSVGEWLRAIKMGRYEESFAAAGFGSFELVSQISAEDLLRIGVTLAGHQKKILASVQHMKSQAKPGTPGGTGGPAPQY
Kind of assay: Selectivity interaction (Ambit KINOMEscan and KiNATiv profiling in Jurkat cells) EUB0000090b EPHB4. The note with it: at 1 µM. In kind it is cell-based.

Assay [12] addresses Potassium voltage-gated channel subfamily A member 5 (Homo sapiens) (UniProt P22460). Kind of assay: Selectivity interaction (Panel of kinases, GPCRs, ion channels and transporters (enzymatic assay)) EUB0000223bCl KCNA5.
Assay [13] has as its target Serine/threonine-protein kinase N2 (Homo sapiens, UniProt Q16513). Kind of assay: Selectivity interaction (Upstate Kinase Profiler service (Millipore)) EUB0000056c PKN2. Particulars: at 1 µM.
The target in assay [14] is Receptor tyrosine-protein kinase erbB-3 (Homo sapiens) (UniProt P21860). In words: Selectivity interaction (KinomeScan (DiscoverX)) EUB0000092b ERBB3. The note with it: at 10 µM.
The target of assay [15] is Protein arginine N-methyltransferase 3 (Homo sapiens, UniProt O60678). In words: Selectivity interaction (Methyltransferase screen (radiometric assays, panel of 8 PRMTs, 21 protein lysine methyltransferases, 3 DNA methyltransferases, and one RNA methyltransferase)) EUB0000271b PRMT3.
In assay [16] the target is Mitogen-activated protein kinase 10 (Homo sapiens, UniProt P53779). In words: Selectivity interaction (KinomeScan (DiscoverX)) EUB0001079a MAPK10. The note with it: at 1 µM.
Assay [17] addresses T2, Tyrosine-protein kinase Tec (Homo sapiens) (UniProt P42680).
T2 sequence (whole entry): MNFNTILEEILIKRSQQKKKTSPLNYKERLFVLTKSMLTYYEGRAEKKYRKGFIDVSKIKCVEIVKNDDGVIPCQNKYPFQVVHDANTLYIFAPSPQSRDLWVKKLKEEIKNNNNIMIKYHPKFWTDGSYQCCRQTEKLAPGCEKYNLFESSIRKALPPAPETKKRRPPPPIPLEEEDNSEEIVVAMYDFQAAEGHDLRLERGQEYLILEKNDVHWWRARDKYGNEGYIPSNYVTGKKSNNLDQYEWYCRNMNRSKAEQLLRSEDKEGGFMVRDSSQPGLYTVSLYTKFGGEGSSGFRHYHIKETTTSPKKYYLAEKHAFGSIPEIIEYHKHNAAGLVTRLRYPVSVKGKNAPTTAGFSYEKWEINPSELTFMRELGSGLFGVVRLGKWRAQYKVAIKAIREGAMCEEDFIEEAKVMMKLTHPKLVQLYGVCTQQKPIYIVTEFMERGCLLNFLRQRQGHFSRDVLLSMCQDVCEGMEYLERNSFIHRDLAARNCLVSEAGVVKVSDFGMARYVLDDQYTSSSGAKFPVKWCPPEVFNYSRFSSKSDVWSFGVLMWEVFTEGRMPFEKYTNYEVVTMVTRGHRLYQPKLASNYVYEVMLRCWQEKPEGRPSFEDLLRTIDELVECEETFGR
In words: Selectivity interaction (KinomeScan (DiscoverX)) EUB0001079a TEC. The note with it: at 1 µM.

Assay [18] addresses Mitogen-activated protein kinase kinase kinase kinase 5 (Homo sapiens) (UniProt Q9Y4K4). Kind of assay: Selectivity interaction (KinomeScan (DiscoverX)) EUB0000229b MAP4K5. Particulars: at 10 µM.

Some results are limits rather than exact numbers.

Sequence of Mitogen-activated protein kinase kinase kinase kinase 5 (Homo sapiens) (Q9Y4K4 whole entry, looked up): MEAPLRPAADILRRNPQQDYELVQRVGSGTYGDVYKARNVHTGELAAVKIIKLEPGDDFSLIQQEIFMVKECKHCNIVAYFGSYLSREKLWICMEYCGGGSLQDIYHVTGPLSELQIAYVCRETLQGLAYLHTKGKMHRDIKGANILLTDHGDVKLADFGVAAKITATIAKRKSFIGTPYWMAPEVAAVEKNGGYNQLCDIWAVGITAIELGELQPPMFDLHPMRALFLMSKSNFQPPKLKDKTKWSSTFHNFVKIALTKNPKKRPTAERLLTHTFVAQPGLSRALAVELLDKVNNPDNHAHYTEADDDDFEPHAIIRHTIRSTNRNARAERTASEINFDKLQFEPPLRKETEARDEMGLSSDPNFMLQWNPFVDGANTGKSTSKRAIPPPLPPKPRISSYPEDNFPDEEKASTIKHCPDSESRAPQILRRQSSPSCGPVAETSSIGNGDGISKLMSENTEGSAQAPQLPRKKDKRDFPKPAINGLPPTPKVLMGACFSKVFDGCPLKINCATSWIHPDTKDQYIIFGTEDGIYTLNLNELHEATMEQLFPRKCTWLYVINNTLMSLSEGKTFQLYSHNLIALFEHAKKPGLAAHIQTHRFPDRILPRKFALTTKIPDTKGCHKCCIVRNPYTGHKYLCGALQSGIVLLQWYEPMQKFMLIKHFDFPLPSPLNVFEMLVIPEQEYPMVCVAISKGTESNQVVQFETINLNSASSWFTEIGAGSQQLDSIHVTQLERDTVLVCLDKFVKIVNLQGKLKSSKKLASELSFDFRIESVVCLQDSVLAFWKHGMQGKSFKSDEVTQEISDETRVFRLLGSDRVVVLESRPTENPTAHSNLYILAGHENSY
Sequence of Calcium/calmodulin-dependent protein kinase type II subunit beta (Homo sapiens) (Q13554 whole entry): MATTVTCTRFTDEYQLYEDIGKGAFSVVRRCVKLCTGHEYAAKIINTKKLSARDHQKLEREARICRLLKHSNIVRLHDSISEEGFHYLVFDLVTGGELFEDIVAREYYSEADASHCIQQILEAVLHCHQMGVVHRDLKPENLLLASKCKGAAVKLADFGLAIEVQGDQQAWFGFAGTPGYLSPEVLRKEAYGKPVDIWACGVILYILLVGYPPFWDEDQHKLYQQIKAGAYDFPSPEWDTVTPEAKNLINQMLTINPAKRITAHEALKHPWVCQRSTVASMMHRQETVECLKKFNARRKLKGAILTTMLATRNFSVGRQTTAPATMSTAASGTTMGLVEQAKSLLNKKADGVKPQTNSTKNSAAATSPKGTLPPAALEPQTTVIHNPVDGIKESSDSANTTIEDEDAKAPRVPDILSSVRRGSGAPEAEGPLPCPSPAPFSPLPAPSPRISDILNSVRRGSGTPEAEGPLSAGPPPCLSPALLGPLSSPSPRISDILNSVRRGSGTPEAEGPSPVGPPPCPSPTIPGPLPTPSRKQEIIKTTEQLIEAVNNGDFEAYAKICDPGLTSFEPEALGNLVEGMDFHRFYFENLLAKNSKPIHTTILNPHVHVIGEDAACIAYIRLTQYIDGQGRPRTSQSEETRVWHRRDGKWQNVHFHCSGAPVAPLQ
Sequence of Protein arginine N-methyltransferase 3 (O60678 2-531 limits assumed): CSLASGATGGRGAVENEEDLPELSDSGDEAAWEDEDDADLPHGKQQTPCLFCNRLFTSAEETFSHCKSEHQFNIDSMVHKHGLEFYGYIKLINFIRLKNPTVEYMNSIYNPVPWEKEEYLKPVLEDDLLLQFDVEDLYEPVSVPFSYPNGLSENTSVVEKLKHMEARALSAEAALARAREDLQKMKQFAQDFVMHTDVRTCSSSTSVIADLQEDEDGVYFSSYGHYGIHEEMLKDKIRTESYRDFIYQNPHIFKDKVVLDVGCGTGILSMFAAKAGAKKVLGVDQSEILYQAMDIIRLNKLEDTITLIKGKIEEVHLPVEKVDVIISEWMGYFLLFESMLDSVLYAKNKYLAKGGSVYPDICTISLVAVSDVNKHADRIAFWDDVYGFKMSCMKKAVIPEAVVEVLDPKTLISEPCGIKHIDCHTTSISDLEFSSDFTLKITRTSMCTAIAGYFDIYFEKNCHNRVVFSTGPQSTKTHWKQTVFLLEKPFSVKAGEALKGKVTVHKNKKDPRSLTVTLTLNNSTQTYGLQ
Sequence of Receptor tyrosine-protein kinase erbB-3 (Homo sapiens) (P21860 whole entry): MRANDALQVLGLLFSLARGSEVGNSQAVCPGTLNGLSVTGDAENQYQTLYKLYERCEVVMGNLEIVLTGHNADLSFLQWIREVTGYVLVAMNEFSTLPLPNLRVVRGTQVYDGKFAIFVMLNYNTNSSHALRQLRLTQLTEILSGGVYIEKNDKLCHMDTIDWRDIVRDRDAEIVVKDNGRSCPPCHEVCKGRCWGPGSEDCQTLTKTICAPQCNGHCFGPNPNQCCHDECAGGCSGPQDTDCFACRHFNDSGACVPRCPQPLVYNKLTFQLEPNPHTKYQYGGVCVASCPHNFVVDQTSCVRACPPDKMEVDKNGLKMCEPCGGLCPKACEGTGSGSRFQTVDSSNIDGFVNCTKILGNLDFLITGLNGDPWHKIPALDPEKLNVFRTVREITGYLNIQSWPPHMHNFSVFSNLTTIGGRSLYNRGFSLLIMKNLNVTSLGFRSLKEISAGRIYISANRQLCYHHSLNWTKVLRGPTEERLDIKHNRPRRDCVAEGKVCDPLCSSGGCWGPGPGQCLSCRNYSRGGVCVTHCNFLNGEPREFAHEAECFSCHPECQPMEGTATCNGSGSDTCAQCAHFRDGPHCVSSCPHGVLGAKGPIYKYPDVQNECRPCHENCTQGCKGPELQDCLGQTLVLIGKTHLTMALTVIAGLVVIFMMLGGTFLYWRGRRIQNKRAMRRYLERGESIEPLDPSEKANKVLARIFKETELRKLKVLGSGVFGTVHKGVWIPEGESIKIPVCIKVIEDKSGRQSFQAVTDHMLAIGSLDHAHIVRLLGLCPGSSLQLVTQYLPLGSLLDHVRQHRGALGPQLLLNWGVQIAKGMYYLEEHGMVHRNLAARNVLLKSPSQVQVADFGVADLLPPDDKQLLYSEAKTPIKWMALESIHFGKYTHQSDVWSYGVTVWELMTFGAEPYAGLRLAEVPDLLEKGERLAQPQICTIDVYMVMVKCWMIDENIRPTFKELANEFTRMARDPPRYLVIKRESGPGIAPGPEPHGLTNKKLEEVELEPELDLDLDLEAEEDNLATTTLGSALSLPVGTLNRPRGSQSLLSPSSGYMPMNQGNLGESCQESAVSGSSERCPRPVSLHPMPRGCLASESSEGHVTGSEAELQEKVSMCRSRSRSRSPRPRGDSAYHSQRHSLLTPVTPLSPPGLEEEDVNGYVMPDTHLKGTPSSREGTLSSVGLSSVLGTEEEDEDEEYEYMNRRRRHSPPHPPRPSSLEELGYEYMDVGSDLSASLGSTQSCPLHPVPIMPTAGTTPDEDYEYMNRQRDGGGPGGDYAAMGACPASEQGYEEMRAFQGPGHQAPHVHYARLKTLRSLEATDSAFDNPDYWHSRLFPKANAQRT
Sequence of RAC-alpha serine/threonine-protein kinase (P31749 whole entry): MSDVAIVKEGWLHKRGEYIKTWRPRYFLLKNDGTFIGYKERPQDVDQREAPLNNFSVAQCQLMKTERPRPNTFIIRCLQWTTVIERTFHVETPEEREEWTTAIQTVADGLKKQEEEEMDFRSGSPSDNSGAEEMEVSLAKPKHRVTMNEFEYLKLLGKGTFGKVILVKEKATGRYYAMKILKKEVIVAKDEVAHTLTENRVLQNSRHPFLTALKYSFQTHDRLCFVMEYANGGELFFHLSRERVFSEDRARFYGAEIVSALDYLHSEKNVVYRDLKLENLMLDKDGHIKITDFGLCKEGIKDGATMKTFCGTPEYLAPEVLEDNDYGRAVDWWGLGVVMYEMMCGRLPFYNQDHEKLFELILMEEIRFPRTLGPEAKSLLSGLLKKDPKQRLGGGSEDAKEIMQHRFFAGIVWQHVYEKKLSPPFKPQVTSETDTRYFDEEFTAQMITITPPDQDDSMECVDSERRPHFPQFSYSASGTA
Sequence of Serine/threonine-protein kinase N2 (Q16513 whole entry, looked up): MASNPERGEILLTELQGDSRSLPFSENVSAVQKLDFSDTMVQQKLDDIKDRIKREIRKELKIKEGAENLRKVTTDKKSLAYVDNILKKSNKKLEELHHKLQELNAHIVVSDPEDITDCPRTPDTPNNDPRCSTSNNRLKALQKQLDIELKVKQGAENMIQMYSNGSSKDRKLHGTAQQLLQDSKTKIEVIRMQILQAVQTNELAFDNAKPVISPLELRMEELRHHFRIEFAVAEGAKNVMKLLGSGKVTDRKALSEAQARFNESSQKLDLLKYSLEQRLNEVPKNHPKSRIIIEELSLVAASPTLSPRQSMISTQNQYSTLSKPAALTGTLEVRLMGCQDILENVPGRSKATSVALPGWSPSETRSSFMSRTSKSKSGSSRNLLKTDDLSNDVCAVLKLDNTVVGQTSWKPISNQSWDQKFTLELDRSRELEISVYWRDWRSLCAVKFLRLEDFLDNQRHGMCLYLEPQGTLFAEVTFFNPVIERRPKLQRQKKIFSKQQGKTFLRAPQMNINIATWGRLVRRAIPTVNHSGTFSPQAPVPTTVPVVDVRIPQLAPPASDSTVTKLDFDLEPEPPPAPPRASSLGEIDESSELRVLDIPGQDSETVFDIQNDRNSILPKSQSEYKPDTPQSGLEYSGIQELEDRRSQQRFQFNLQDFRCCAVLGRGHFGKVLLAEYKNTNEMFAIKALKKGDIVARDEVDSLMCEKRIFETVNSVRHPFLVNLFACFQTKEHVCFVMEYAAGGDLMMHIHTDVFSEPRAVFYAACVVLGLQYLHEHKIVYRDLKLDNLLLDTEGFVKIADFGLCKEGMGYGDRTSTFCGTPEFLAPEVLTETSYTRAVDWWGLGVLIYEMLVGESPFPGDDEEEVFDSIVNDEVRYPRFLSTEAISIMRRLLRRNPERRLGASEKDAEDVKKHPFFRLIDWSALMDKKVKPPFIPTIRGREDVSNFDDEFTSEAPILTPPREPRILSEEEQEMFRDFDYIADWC

In turn, `Cn1cc(-n2cnc3c(NCc4nc5cc(Cl)c(Cl)cc5[nH]4)nc(N4CCOCC4)nc32)cn1` gave a % of control in [1] of 5.72%.

As for `CCN(CC)CCCCNc1ncc2cc(-c3cc(OC)cc(OC)c3)c(NC(=O)NC(C)(C)C)nc2n1`, the % of control in assay [2] and in assay [3] was 100% in each case.

Take `Cc1cc(F)c(C(=O)Nc2cccc(-c3nncn3C(C)C)n2)cc1-n1cnc(C2CC2)c1`: in assay [4], the % of control turned out to be 98%.

Regarding `O=C(NOC[C@H](O)CO)c1ccc(F)c(F)c1Nc1ccc(I)cc1F`, the % of control in assay [5] turned out to be 98%.

Consider `Cc1cc([C@@H](C)Nc2ccccc2C(=O)O)c2nc(N3CCOCC3)cc(=O)n2c1` [AZD-6482], for which the % of control in assay [6] was 94%.

Consider `CC[C@@H]1[C@H](F)C(=O)N[C@@H]1COc1nccc2cc(C(N)=O)c(OC)cc12` [ZIMLOVISERTIB], for which the % of inhibition in assay [7] stood at 10%.

For the compound `CNCCN1CCC(c2cc(CN(C)C(=O)c3cccc(Oc4ccccc4)c3)ccn2)CC1`, the % activity in [8] is greater than 90%.

For the compound `C=CC(=O)Nc1cccc(C(=O)Nc2ccc(Nc3cc(-c4[nH]c(SC)nc4C)ccn3)cc2)c1`, the values for the % of control in assay [9] (at 1 µM) and in assay [9] (at 5 µM) were 97% and 79%, respectively.

As to `CN(C)C/C=C/C(=O)Nc1ccc(C(=O)N2CCCC(Nc3ncc(Cl)c(-c4c[nH]c5ccccc45)n3)C2)cc1` (stereo not given), the % of control in assay [10] is 86%; in assay [11], 94%.

In [12], `COc1cc(C(=O)N2CC[C@@H](O)[C@@H](N)C2)cc2nc(-c3cc4ccccc4n3CC3CC3)n(C)c12` gave a pXC50 of less than 4.8 M.

With `Cc1ccc(-c2ccc3c(ccc4sc5c(c43)NC[C@@H](C)NC5=O)n2)cn1`, the % of inhibition in assay [13] is -8%.

Compound `CCC(=O)N1CCN(c2ccc(-n3c(=O)ccc4cnc5ccc(-c6cnc7ccccc7c6)cc5c43)cc2C(F)(F)F)CC1` yielded a % of control in assay [14] of 44%.

On to `Cc1cc(C)cc([C@@H]2c3cc(C)ccc3NC(=O)CN2C(=O)c2ccc(Br)s2)c1`, for which the values for the % of activity in assay [15] (at 1 µM) and in [15] (at 10 µM) were 100% and 98%, respectively.

As to `Nc1cnc(N2CCc3cc(S(=O)(=O)Nc4c(F)cc(Cl)cc4F)cc(N4CCCC4=O)c32)nc1` [TP-020n], the % of control in assay [16] was 94%; in [17] it was 99%.

`COc1cc(N(C)c2ccnc3ccc(C(F)(F)F)cc23)cc(OC)c1OC` returned a % binding in assay [18] of 97%.
